# Source: publication PMC4270796, “Ethenoguanines Undergo Glycosylation by Nucleoside 2′-Deoxyribosyltransferases at Non-Natural Sites” (PLoS ONE, 2014)
# Molecular target: T1, L. helveticus PDT (Lactobacillus helveticus, UniProt Q8RLY5)
# T1 construct: gene ptd; recombinant in E. coli BL21(DE3)pLysS from pETLH4; ammonium sulfate and Sephacryl S-200, no tag mentioned; C-terminal residue Tyr167; active site shared with adjacent monomer; 3 monomers per ASU
# Assay: X-ray crystallography, […] Å, soaked crystals
# Format: binding
# Settings: soak up to 6 mM; active site, four overlapping orientations; also deoxyribosylated at N1 and N7 with dGuo donor
# T1 sequence (Q8RLY5 entry or part of it): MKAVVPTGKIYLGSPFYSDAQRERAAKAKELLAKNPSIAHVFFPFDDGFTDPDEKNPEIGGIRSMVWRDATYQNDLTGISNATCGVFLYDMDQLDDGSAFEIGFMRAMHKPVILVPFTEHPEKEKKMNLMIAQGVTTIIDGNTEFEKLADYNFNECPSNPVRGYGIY
structure (smiles),measurement,value
"O=c1[nH]c2nccn2c2nc[nH]c12 [compound 1, 8,9-dihydro-9-oxoimidazo[2,1-b]purine]","X-ray crystallography, 2.1 Å, soaked crystals","the substrate binds in at least four different, overlapping orientations"
